# Values joined by “and” are separate entries in the source; they are usually repeats but may differ in a detail not shown here. Equal values may be shown once. Inconclusive results and toxic doses are left out.
# Tested on: B6C3F1 mice, ip Sarcoma M5076, median survival T/C
# Assay: NCI In Vivo Anticancer Drug Screen. Data for tumor model Sarcoma M5076 (intraperitoneal) in B6C3F1 mice
# Details: endpoint: median survival time, higher = longer survival
# Summary of the method: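 Survival measured in treated (T) and vehicle control (C) mice with transplantable tumour; result given as T divided by C.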
# [1] = dose: 25.0 mg/kg/injection, schedule: Q04DX004 (ip), vehicle: Klucel (hydroxypropylcellulose) (HPC)
# [2] = dose: 50.0 mg/kg/injection, schedule: Q04DX004 (ip), vehicle: Klucel (hydroxypropylcellulose) (HPC)
# [3] = dose: 100.0 mg/kg/injection, schedule: Q04DX004 (ip), vehicle: Klucel (hydroxypropylcellulose) (HPC)
# [4] = dose: 200.0 mg/kg/injection, schedule: Q04DX004 (ip), vehicle: Klucel (hydroxypropylcellulose) (HPC)
# [5] = dose: 400.0 mg/kg/injection, schedule: Q04DX004 (ip), vehicle: Klucel (hydroxypropylcellulose) (HPC)
structure (smiles),measurement,setting,value
CCn1c(-c2ccc(OC(C)=O)cc2)c(C)c2cc(OC(C)=O)ccc21,T/C,[1],102 % of control
same,T/C,[2],107 % of control
same,T/C,[3],87 % of control
same,T/C,[4],90 % of control
Oc1ccc(/C=N/Nc2nnc(N/N=C/c3ccc(O)cc3O)c3ccccc23)c(O)c1,T/C,"dose: 6.25 mg/kg/injection, schedule: Q04DX004 (ip), vehicle: suspension in saline",108 % of control
same,T/C,"dose: 12.5 mg/kg/injection, schedule: Q04DX004 (ip), vehicle: suspension in saline",109 % of control
same,T/C,"dose: 25.0 mg/kg/injection, schedule: Q04DX004 (ip), vehicle: suspension in saline",109 % of control
same,T/C,"dose: 50.0 mg/kg/injection, schedule: Q04DX004 (ip), vehicle: suspension in saline",109 % of control
same,T/C,"dose: 100.0 mg/kg/injection, schedule: Q04DX004 (ip), vehicle: suspension in saline",119 % of control
COc1cc2cc(c1Cl)N(C)C(=O)C[C@H](OC(=O)[C@H](C)N(C)C(C)=O)[C@]1(C)O[C@H]1[C@H](C)[C@@H]1C[C@@](O)(NC(=O)O1)[C@H](OC)C=C/C=C(\C)C2,T/C,"dose: 18.75 micrograms/kg/injection, schedule: Q04DX004 (ip), vehicle: saline",101 % of control
same,T/C,"dose: 37.5 micrograms/kg/injection, schedule: Q04DX004 (ip), vehicle: saline",103 % of control and 119 % of control
same,T/C,"dose: 37.5 micrograms/kg/injection, schedule: Q04DX005 (ip), vehicle: saline",108 % of control and 217 % of control
same,T/C,"dose: 75.0 micrograms/kg/injection, schedule: Q04DX004 (ip), vehicle: saline",112 % of control
same,T/C,"dose: 75.0 micrograms/kg/injection, schedule: Q04DX005 (ip), vehicle: saline",119 % of control
same,T/C,"dose: 150.0 micrograms/kg/injection, schedule: Q04DX004 (ip), vehicle: saline",114 % of control
same,T/C,"dose: 300.0 micrograms/kg/injection, schedule: Q04DX004 (ip), vehicle: saline",114 % of control
O=c1/c(=C\C=C\c2ccccc2)sc2n1CCN=2,T/C,"dose: 50.0 mg/kg/injection, schedule: Q04DX004 (ip), vehicle: saline with Tween-80",95 % of control
same,T/C,"dose: 100.0 mg/kg/injection, schedule: Q04DX004 (ip), vehicle: saline with Tween-80",99 % of control
same,T/C,"dose: 200.0 mg/kg/injection, schedule: Q04DX004 (ip), vehicle: saline with Tween-80",91 % of control
same,T/C,"dose: 400.0 mg/kg/injection, schedule: Q04DX004 (ip), vehicle: saline with Tween-80",99 % of control
Cc1c2ccccc2cc2cccc[n+]12,T/C,"dose: 10.0 mg/kg/injection, schedule: Q04DX004 (ip), vehicle: saline",100 % of control
same,T/C,"dose: 20.0 mg/kg/injection, schedule: Q04DX004 (ip), vehicle: saline",96 % of control
same,T/C,"dose: 40.0 mg/kg/injection, schedule: Q04DX004 (ip), vehicle: saline",96 % of control
Cn1nc2c(c(Cl)c1=O)Nc1ccccc1O2,T/C,"dose: 37.5 mg/kg/injection, schedule: Q04DX004 (ip), vehicle: saline with Tween-80",104 % of control
same,T/C,"dose: 75.0 mg/kg/injection, schedule: Q04DX004 (ip), vehicle: saline with Tween-80",97 % of control
same,T/C,"dose: 150.0 mg/kg/injection, schedule: Q04DX004 (ip), vehicle: saline with Tween-80",96 % of control
Cc1nc2ccccc2c(N)c1-c1cc(C)c2c(C)nc3ccccc3c2n1,T/C,"dose: 6.25 mg/kg/injection, schedule: Q04DX004 (ip), vehicle: Klucel (hydroxypropylcellulose) (HPC)",97 % of control
same,T/C,"dose: 12.5 mg/kg/injection, schedule: Q04DX004 (ip), vehicle: Klucel (hydroxypropylcellulose) (HPC)",91 % of control
same,T/C,[1],90 % of control and 94 % of control and 101 % of control
same,T/C,[2],92 % of control and 98 % of control
same,T/C,[3],96 % of control and 100 % of control
same,T/C,[4],99 % of control
same,T/C,[5],106 % of control
C=CCOc1cc2c(cc1C(C)c1ccc(OC)cc1)OCO2 (centres undefined),T/C,[1],98 % of control
same,T/C,[2],116 % of control
same,T/C,"dose: 75.0 mg/kg/injection, schedule: Q04DX004 (ip), vehicle: Klucel (hydroxypropylcellulose) (HPC)",113 % of control
same,T/C,[3],115 % of control
same,T/C,"dose: 144.0 mg/kg/injection, schedule: Q04DX004 (ip), vehicle: Klucel (hydroxypropylcellulose) (HPC)",118 % of control
same,T/C,"dose: 150.0 mg/kg/injection, schedule: Q04DX004 (ip), vehicle: Klucel (hydroxypropylcellulose) (HPC)",106 % of control
same,T/C,[4],123 % of control
same,T/C,"dose: 240.0 mg/kg/injection, schedule: Q04DX004 (ip), vehicle: Klucel (hydroxypropylcellulose) (HPC)",108 % of control
same,T/C,"dose: 300.0 mg/kg/injection, schedule: Q04DX004 (ip), vehicle: Klucel (hydroxypropylcellulose) (HPC)",124 % of control
same,T/C,[5],108 % of control
CN=C(N)N/N=C(\C)c1ccc2sc3ccc(/C(C)=N/NC(N)=NC)cc3c2c1,T/C,"dose: 25.0 mg/kg/injection, schedule: Q04DX004 (ip), vehicle: saline with Tween-80",113 % of control

# Reference: PubChem BioAssay AID292 (DTP/NCI, 2004)
